ChEMBL document CHEMBL4831477, “Structure-Enabled Discovery of Novel Macrocyclic Inhibitors Targeting Glutaminase 1 Allosteric Binding Site” (J Med Chem, 2021)
In brackets after ≈: the same amount, converted by molar mass.

How the values were obtained:
[1] = Intrinsic aqueous solubility of compound at pH 7.4 by LC-MS based shake-flask method; assay type: physicochemical; details: read-out: Intrinsic_solubility
[2] = system: MDA-MB-436; test: Antiproliferative activity against human MDA-MB-436 cells assessed as reduction in cell viability incubated for 72 hrs by MTT assay; assay type: functional, cell-based; details: MDA-MB-436, 72 h
[3] = target: T1, Glutaminase kidney isoform, mitochondrial (Homo sapiens) (UniProt O94925)
T1 sequence (whole entry): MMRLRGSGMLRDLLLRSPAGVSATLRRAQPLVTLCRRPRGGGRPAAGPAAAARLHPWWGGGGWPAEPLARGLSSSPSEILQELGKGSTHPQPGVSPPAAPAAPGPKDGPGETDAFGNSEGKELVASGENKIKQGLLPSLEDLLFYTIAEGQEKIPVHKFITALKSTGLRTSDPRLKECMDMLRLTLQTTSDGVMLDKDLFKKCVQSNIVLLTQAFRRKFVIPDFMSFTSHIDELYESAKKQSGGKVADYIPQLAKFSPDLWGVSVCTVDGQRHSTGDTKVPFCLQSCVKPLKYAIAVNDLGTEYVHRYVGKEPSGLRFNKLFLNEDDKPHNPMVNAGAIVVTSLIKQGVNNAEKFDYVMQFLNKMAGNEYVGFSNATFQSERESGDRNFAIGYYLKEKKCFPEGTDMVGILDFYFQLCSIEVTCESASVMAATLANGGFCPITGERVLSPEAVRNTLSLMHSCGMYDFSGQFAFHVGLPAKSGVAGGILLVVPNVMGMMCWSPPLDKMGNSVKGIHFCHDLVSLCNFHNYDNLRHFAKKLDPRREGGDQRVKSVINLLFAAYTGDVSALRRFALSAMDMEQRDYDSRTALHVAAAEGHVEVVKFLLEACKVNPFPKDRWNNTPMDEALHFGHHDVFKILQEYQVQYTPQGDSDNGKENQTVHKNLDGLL
Description: Binding affinity to human GLS1 expressed in Escherichia coli strain BL21 (DE3) assessed as change in melting temperature by SYPRO orange dye based protein thermal shift assay

[4] = system: HCT-116; test: Inhibition of colony formation in human HCT-116 cells incubated for 14 days by crystal violet staining based assay; assay type: functional, cell-based; details: dose 0.1-2 µM, time 14.0 day
[5] = target: T2, Glutaminase kidney isoform, mitochondrial (Homo sapiens, UniProt O94925); test: Inhibition of recombinant human GLS1 expressed in Escherichia coli strain BL21 (DE3) preincubated for 10 mins before glutamine addition and measured after 60 mins by bovine liver glutamate dehydrogenase based coupled enzyme assay
T2 sequence (O94925 whole entry): T1 sequence (whole entry)

[6] = system: HCT-116; test: Antiproliferative activity against human HCT116 cells assessed as reduction in cell viability incubated for 72 hrs by MTT assay; assay type: functional, cell-based; details: HCT-116, 72 h
[7] = Distribution coefficient, logD of the compound at pH 7.4 by LC-MS based shake-flask method; assay type: physicochemical; details: octanol/water, read-out: logD

solubility thermodynamic [1] [µg/mL]	IC50 [2] [nM]	ΔTm [3] [°C]	IC50 [5] [nM]	IC50 [6] [nM]	logD [7]	Structure (SMILES)	inhibition [4]
2.16 (≈ 3.78 µM)	640	17.2	32	260	2.79	O=C1Cc2cccc(c2)OC/C=C/COc2cccc(c2)CC(=O)Nc2nnc(s2)CCCCc2ccc(nn2)N1	Dose-Dependent Effect
1.62 (≈ 2.58 µM)	570	18.3	28	190	3.48	O=C1Cc2cccc(c2)OCCC/C=C/CCCOc2cccc(c2)CC(=O)Nc2nnc(s2)CCCCc2ccc(nn2)N1	Dose-Dependent Effect
1.09 (≈ 1.66 µM)	710	17.7	37	380	3.72	O=C1Cc2ccccc2OCCCC/C=C/CCCCOc2cccc(c2)CC(=O)Nc2nnc(s2)CCCCc2ccc(nn2)N1	
0.34 (≈ 0.59 µM)	510	16.5	41	280	2.9	O=C1Cc2cccc(c2)OC/C=C/COc2cccc(c2)CC(=O)NC2=NN=C(CCCCC3=NN=C(N1)S3)S2	Dose-Dependent Effect

Second part, the compound before the results:

Structure (SMILES)	solubility thermodynamic [1] [µg/mL]	IC50 [2] [nM]	ΔTm [3] [°C]	IC50 [5] [nM]	IC50 [6] [nM]	logD [7]	inhibition [4]
O=C(Cc1ccccc1)Nc1nnc(CCSCCc2nnc(NC(=O)Cc3ccccc3)s2)s1		5080			3910	2.86	
C=CCCOc1cccc(CC(=O)Nc2ccc(CCCCc3nnc(NC(=O)Cc4cccc(OCCC=C)c4)s3)nn2)c1				68			
O=C1CCCC/C=C/CCCCOc2cccc(c2)CCC(=O)Nc2nnc(s2)CCCCc2ccc(nn2)N1	1.97 (≈ 3.5 µM)	1820	16.3	123	680	3.89	
O=C1CCc2cccc(c2)OCC/C=C/CCCC(=O)Nc2nnc(s2)CCCCc2ccc(nn2)N1	2.05 (≈ 3.94 µM)	6300	11.7	372	1450	3.08	
O=C1Cc2cccc(c2)OCCC/C=C/CCCOc2cccc(c2)CC(=O)NC2=NN=C(CCCCC3=NN=C(N1)S3)S2	0.25 (≈ 0.395 µM)	820	16.7	82	510	3.49	
